Where no end group is shown, it is not given here.
What was measured:
Kunjin virus (KUNV) [1] = assay: Flavivirus inhibition assay, crystal violet-based plaque assay (Vero cells); type: cell-based; settings: for reduction of viral load: L- or D-PLNC8 αβ (1:1)
[2] = Carboxyfluorescein (CF) release assay; type: biochemical
Description: Liposomes were prepared by thin film hydration, followed by extrusion^19. Stock solutions of the lipids 1-palmitoyl-2-oleoyl-sn-glycero3-phosphatidylcholine (POPC), 1-palmitoyl-2-oleoyl-sn-glycero-3-phosphoL-serine (POPS) and cholesterol (Chol) were mixed at molar ratio 95:0:5, 65:30:5, 70:0:30, 91:1:8 and 81:11:8. The solvent was slowly evaporated via nitrogen stream, then the vials were dried in a vacuum desiccator overnight. Dry films were hydrated by addition of 1 mL 5(6)-carboxyfluorescein solution. The CF solution, presenting self-quenching concentration of CF, was prepared with 50 mM CF dissolved in 10 mM PB buffer and 90 mM NaCl, followed by pH adjustment. CF solution was dispensed on the lipid cake and incubated for 10 min under gentle shaking (50 min-1 on orbital shaker), followed by 1 min vortexing. The liposomes were extruded 21 times with a mini extruder (Avanti Polar Lipids, Inc.), through a 0.1 um membrane (Nucleapore track-etched hydrophilic membrane). The lipids were purified by gel filtration through a PD Mini Trap G-25 column by elution in PB buffer (10 mM).
To study peptide efficacy on liposome membrane disruption, the liposome fluorescence was monitored upon peptide addition by microplate reader (Tecan Infinite M1000 Pro, λex=485 nm, λem=520 nm). Liposomes were diluted to a final concentration of 25 μM with 10 mM PB buffer and incubated with PLNC8 α, PLNC8 β and PLNC8 α/β at concentration of 10^−5-10^2 μM in a 96 well plate at a final volume of 200 μL. Due to the self-quenching concentration of carboxyfluorescein (CF) inside the liposomes, any fluorescence of the liposome-peptide system could be attributed to the liposome membrane disruption. Fluorescence was monitored prior to peptide addition (F0), and continuatively for 30 min. Total CF release (FT) was achieved through addition of 1% Triton X-100. Instantaneous CF release (%) was calculated through the formula 100×(F−F0)/(FT−F0), where F is the instantaneous fluorescence.

human cells = settings: previously shown (ref. 16); cited from earlier work
Kunjin virus (KUNV) [3] = assay: Peptide treatment of KUNV-infected A549 cells (viral mRNA, extracellular virions); settings: A549 infected 1 h, then 10 μM, 48 h; cell culture media
Langat virus (LGTV) [4] = type: biochemical; settings: 2 h
Langat virus (LGTV) [5] = type: cell-based
SARS-CoV-2 = SARS-CoV-2 virus inhibition assay (plaque assay); type: cell-based, Severe Acute Respiratory Syndrome Coronavirus 2; settings: SARS-CoV-2 (1×10^3) exposed 1 h at 37° C., then Vero cells; read-out: concentration for 50% reduction of PFU
[6] = system: Influenza A virus (H1N1/CA09pdm); assay: Influenza A virus inhibition assay (plaque assay); type: cell-based; settings: Influenza A virus (1×10^3) pre-treated 1 h at 37° C.; read-out: concentration for 50% reduction of influenza A PFU

For “PLNC8 β: peptide of SEQ ID NO:1; statement covers L- and D-enantiomers (FIG. 7) (SVPTSVYTLGIKILWSAYKHRKTIEKSFNKGFYH; also: L- or D-enantiomer covered; listed as Lactobacillus plantarum)”, the “efficiency at eliminating KUNV, single peptides compared” value (Kunjin virus (KUNV) [1]; 20 μM, L- and D-enantiomers (FIG. 7)) was “more efficient than PLNC8 α at eliminating KUNV”.
In the case of Plantaricin NC8 (PLNC8) αβ [PLNC8 αβ], the “susceptibility of liposomes (CF release)” value ([2]; POPC:POPS:Chol (70:0:30), mimicking a eukaryotic plasma membrane) is reported as “resilient”, the “susceptibility of liposomes (CF release)” value ([2]; POPC:POPS:Chol (81:11:8), mimicking a eukaryotic ER membrane) is reported as “very susceptible” and the “susceptibility of liposomes (CF release)” value ([2]; POPC:POPS:Chol (91:1:8)) is reported as “more susceptible”. For the same substance, the “reduction of viral load” value (Kunjin virus (KUNV) [1]; 0.1 μM, KUNV MOI 0.1, 0.01, 0.001, 1 h) was 80%, the “reduction of viral load” value (Kunjin virus (KUNV) [1]; 1 μM, KUNV MOI 0.1, 0.01, 0.001, 1 h) was 95% and the elimination of virions (Kunjin virus (KUNV) [1]; ≥10 μM, KUNV MOI 0.1, 0.01, 0.001, 1 h) was “completely eliminates all virions”. For the same substance, the “cytotoxicity towards human cells” value (human cells) was “no cytotoxicity towards human cells” and the “reduction of extracellular virion load” value (Kunjin virus (KUNV) [3]) was 70-80%.
With “SVPTSVYTLGIKILWSAYKHRKTIEKSFNKGFYH [L-PLNC8 β]” the “permeabilization of the viral envelope (Sytox Green)” value (Langat virus (LGTV) [4]) was “permeabilization of LGTV”, the “decrease of viral load” value (Langat virus (LGTV) [5]) was over 99% and the IC50 (SARS-CoV-2) was 900 to 1000 nM. The IC50 [6] was over 20 µM.
In the case of “SVPTSVYTLGIKILWSAYKHRKTIEKSFNKGFYH, SEQ ID NO:1 [D-PLNC8 β]”, the “permeabilization of the viral envelope (Sytox Green)” value (Langat virus (LGTV) [4]) is reported as “permeabilized”, the IC50 (SARS-CoV-2) is reported as 1400 nM and the IC50 [6] is reported as 19 µM.

— patent publication US20240374680A1, “PHARMACEUTICAL COMPOSITION FOR TREATMENT OF VIRAL INFECTIONS” (Virenc AB, priority 2021, published 2024)
